{"source": "ChEMBL document CHEMBL4219204", "about": "“Structure-based design and discovery of potent and selective KDM5 inhibitors” (Bioorg Med Chem Lett, 2018)", "key": {"[1]": {"assay": "Kinetic solubility of the compound", "type": "physicochemical"}, "[2]": {"molecular_target": "T1, Lysine-specific demethylase 4B (Homo sapiens, UniProt O94953)", "T1 sequence (O94953 whole entry)": "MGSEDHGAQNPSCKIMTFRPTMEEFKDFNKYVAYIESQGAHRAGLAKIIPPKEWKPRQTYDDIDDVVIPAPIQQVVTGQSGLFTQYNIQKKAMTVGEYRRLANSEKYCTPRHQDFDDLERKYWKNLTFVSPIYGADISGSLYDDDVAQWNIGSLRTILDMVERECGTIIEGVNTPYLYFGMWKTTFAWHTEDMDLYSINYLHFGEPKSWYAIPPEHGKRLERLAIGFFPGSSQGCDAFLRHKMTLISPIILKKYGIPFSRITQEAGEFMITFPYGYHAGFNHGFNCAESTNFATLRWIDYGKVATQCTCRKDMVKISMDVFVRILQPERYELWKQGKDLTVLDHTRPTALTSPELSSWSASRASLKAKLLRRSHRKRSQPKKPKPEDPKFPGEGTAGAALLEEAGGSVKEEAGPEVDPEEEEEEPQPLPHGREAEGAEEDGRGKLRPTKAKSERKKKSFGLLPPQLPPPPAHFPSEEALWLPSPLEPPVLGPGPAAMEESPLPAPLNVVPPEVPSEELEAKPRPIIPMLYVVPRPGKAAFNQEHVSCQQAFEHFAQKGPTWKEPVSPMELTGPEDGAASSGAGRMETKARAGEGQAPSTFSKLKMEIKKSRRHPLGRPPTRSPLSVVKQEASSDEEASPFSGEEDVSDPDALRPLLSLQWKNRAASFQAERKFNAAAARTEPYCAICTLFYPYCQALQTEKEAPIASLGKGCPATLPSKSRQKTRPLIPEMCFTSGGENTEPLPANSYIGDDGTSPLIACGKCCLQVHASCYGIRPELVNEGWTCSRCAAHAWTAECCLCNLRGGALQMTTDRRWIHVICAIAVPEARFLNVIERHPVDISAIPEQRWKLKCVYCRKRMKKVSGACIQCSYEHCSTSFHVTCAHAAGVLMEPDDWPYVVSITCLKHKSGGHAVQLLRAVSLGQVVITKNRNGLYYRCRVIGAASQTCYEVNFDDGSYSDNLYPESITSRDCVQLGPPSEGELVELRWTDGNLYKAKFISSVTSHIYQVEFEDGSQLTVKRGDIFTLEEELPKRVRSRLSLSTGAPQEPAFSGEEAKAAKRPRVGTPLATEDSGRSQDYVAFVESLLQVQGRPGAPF", "assay": "Inhibition of KDM4B (unknown origin)"}, "[3]": {"tested_on": "Mus musculus", "assay": "In vivo inhibition of KDM5 in nude mouse xenografted with human MCF7 cells assessed as increase in H3K4me3 level in tumor at 75 mg/kg, po qd for 5 days measured at 0.5 hrs post last dose by Western blot analysis relative to control", "type": "functional"}, "[4]": {"molecular_target": "T2, Lysine-specific demethylase 3A (Homo sapiens, UniProt Q9Y4C1)", "T2 sequence (Q9Y4C1 whole entry)": "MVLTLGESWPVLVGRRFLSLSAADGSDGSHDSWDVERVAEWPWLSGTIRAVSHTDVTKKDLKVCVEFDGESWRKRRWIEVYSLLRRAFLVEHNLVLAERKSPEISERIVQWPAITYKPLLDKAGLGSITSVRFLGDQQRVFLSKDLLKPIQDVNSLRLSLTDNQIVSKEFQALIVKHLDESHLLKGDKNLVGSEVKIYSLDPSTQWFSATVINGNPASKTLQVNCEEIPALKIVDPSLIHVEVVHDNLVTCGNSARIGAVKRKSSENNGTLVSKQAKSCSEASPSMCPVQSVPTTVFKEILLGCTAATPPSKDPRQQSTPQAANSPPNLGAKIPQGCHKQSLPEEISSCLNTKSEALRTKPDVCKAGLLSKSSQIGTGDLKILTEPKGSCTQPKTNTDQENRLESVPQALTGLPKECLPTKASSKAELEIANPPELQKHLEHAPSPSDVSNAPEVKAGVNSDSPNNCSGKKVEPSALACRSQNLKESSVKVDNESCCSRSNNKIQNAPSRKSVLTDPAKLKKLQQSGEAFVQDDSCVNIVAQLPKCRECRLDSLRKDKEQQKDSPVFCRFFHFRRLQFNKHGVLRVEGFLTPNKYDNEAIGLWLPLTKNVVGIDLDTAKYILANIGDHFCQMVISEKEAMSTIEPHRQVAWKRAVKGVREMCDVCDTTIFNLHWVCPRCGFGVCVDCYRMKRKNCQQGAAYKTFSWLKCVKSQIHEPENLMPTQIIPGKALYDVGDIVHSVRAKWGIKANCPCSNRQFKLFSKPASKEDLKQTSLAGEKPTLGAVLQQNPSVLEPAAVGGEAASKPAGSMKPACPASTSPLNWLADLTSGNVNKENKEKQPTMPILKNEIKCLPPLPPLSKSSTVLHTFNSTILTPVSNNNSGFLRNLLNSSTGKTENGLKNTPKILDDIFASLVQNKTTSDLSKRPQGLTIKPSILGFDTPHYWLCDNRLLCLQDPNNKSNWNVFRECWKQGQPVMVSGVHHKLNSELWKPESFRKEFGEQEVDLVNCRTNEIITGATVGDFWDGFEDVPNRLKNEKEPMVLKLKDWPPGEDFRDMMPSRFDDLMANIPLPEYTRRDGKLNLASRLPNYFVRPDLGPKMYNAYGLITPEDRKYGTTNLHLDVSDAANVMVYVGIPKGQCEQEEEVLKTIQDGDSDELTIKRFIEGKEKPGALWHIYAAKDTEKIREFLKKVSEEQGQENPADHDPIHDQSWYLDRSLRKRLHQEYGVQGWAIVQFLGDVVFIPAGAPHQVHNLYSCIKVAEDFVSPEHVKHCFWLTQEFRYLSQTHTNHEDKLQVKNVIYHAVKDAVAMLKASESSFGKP", "assay": "Inhibition of KDM3A (unknown origin)"}, "[5]": {"assay": "Oral bioavailability in CD-1 mouse at 10 mg/kg", "type": "ADME, organism-based", "settings": "in vivo; call rule not given here"}, "[6]": {"assay": "Drug uptake in tumor of nude mouse xenografted with human MCF7 cells at 75 mg/kg, po qd for 5 days measured at 1 hr post last dose", "type": "ADME, organism-based, Neoplasm", "settings": "in vivo"}}}
{"smiles": "Cc1cc(Cl)ccc1COc1ccnn1-c1cc(C(=O)O)ccn1", "values": [{"measurement": "Kinetic_solubility", "setting": "[1]", "value": "Soluble"}, {"measurement": "IC50", "setting": "[2]", "value": 170, "unit": "nM"}, {"measurement": "fold change (FC)", "setting": "[3]", "value": ">2"}, {"measurement": "IC50", "setting": "[4]", "value": 2300, "unit": "nM"}, {"measurement": "bioavailability", "setting": "[5]", "value": 55, "unit": "%"}, {"measurement": "Drug uptake", "setting": "[6]", "value": "Active"}]}
